# PubChem BioAssay (NCI)
#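 Where inhibition never reached the appropriate level, the endpoint shown equals the highest concentration tested. Otherwise, values were interpolated linearly from a five-concentration, 48-hour dose response in 96-well plates. At the GI50, growth is halved. Definition used: TGI = concentration required for complete inhibition of growth.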
# Experiments:
# Assay in all cases: NCI-60 cell line screen, 48 h
# SF-539 CNS = tested on: SF-539 CNS
# OVCAR-3 ovarian = tested on: OVCAR-3 ovarian
# OVCAR-8 ovarian = tested on: OVCAR-8 ovarian
# A549 NSCLC = tested on: A549 NSCLC
# KM12 colon = tested on: KM12 colon
# NCI/ADR-RES ovarian = tested on: NCI/ADR-RES ovarian
# SW-620 colon = tested on: SW-620 colon
# UACC-62 melanoma = tested on: UACC-62 melanoma
# NCI-H460 lung = tested on: NCI-H460 lung
# LOX IMVI melanoma = tested on: LOX IMVI melanoma
Compound,GI50 (SF-539 CNS) [µM],TGI (SF-539 CNS) [µM],GI50 (OVCAR-3 ovarian) [µM],TGI (OVCAR-3 ovarian) [µM],GI50 (OVCAR-8 ovarian) [µM],TGI (OVCAR-8 ovarian) [µM],GI50 (A549 NSCLC) [µM],TGI (A549 NSCLC) [µM],GI50 (KM12 colon) [µM],TGI (KM12 colon) [µM],GI50 (NCI/ADR-RES ovarian) [µM],TGI (NCI/ADR-RES ovarian) [µM],GI50 (SW-620 colon) [µM],TGI (SW-620 colon) [µM],GI50 (UACC-62 melanoma) [µM],TGI (UACC-62 melanoma) [µM],GI50 (NCI-H460 lung) [µM],TGI (NCI-H460 lung) [µM],GI50 (LOX IMVI melanoma) [µM],TGI (LOX IMVI melanoma) [µM]
O=C(NC1CCCCC1)NS(=O)(=O)c1ccc(N2N=C3c4ccccc4CC3C2c2ccc(Cl)cc2)cc1 (stereo not given),12.8,31.9,18.4,42,19.6,71.7,17.9,47,7.9,27.9,20.6,69.6,10.3,24.3,14.9,32.7,4.45,30.6,10.3,21.9
COc1c2ccccc2c(OC)c2[nH]c(=O)ccc12,4.19,> 36.5,2.31,6.89,13.6,> 100,2.43,> 20.6,3.11,> 27.5,6.51,> 100,4.2,> 63.4,1.65,3.33,1.51,4,1.84,> 23
COCCn1cc(-c2nc(-c3cc4cccnc4[nH]3)cs2)c2cc(OC)ccc21,3.39,42,4.28,21.7,3.56,45.3,3.79,> 100,0.203,9.38,2.95,23.8,4.04,> 100,4.22,31.3,1.1,12.9,3.35,35.1
C[C@@H]1CC[C@H]2C(C)(C)[C@H]3C[C@@]12CC[C@@]3(C)O,–,> 100,–,> 100,–,> 100,–,> 100,–,> 100,–,> 100,–,> 100,–,> 100,–,34.9,–,> 100
CC(=O)N[C@@H](Cc1ccc(OP(=O)(O)O)cc1)C(=O)N[C@H]1CCC(=O)N2CCC[C@@H](C(=O)Nc3cccc4ccccc34)N2C1=O,> 25,> 25,> 25,> 25,> 25,> 25,> 25,> 25,> 25,> 25,> 25,> 25,> 25,> 25,> 25,> 25,> 25,> 25,> 25,> 25
Fc1cc(-c2nnc3n2N=C(c2ccc(Cl)cc2)CS3)c(Cl)cc1Cl,3.35,11.1,13.6,35.8,15.3,44.3,18.7,41.8,13.1,36.4,9.29,36.8,1.55,3,4.3,14.9,18.2,37.4,1.77,3.86
